pIC50: −log10 of the molar value. Calls of active or inactive are those of the source. The calls are words filed in the database; no cut-off is given here.
How the values were obtained:
[1] = biological target: T1, Tyrosine-protein kinase Lck (Homo sapiens, UniProt P06239); assay: Inhibition of Lck (unknown origin)
Target sequence in this assay (P06239 whole entry): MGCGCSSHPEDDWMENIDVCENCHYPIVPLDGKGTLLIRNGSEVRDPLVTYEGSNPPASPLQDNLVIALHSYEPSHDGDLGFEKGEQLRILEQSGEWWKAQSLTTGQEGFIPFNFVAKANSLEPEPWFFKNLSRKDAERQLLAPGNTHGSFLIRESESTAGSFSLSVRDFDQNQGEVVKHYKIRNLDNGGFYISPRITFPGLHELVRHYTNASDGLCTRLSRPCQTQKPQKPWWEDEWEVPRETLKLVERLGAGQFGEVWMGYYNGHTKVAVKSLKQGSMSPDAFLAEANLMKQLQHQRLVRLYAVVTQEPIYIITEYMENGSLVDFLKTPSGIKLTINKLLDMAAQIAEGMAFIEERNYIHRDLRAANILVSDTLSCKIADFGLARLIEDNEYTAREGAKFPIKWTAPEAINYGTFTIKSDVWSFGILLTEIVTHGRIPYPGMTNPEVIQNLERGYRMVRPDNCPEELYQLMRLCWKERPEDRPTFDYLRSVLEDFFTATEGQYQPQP

[2] = Oral bioavailability in mouse at 10 mg/kg; type: ADME, organism-based; conditions: in vivo
[3] = biological target: T2, Proto-oncogene tyrosine-protein kinase ROS (Homo sapiens, UniProt P08922); assay: Inhibition of ROS (unknown origin) at 0.1 uM
T2 sequence (P08922 whole entry): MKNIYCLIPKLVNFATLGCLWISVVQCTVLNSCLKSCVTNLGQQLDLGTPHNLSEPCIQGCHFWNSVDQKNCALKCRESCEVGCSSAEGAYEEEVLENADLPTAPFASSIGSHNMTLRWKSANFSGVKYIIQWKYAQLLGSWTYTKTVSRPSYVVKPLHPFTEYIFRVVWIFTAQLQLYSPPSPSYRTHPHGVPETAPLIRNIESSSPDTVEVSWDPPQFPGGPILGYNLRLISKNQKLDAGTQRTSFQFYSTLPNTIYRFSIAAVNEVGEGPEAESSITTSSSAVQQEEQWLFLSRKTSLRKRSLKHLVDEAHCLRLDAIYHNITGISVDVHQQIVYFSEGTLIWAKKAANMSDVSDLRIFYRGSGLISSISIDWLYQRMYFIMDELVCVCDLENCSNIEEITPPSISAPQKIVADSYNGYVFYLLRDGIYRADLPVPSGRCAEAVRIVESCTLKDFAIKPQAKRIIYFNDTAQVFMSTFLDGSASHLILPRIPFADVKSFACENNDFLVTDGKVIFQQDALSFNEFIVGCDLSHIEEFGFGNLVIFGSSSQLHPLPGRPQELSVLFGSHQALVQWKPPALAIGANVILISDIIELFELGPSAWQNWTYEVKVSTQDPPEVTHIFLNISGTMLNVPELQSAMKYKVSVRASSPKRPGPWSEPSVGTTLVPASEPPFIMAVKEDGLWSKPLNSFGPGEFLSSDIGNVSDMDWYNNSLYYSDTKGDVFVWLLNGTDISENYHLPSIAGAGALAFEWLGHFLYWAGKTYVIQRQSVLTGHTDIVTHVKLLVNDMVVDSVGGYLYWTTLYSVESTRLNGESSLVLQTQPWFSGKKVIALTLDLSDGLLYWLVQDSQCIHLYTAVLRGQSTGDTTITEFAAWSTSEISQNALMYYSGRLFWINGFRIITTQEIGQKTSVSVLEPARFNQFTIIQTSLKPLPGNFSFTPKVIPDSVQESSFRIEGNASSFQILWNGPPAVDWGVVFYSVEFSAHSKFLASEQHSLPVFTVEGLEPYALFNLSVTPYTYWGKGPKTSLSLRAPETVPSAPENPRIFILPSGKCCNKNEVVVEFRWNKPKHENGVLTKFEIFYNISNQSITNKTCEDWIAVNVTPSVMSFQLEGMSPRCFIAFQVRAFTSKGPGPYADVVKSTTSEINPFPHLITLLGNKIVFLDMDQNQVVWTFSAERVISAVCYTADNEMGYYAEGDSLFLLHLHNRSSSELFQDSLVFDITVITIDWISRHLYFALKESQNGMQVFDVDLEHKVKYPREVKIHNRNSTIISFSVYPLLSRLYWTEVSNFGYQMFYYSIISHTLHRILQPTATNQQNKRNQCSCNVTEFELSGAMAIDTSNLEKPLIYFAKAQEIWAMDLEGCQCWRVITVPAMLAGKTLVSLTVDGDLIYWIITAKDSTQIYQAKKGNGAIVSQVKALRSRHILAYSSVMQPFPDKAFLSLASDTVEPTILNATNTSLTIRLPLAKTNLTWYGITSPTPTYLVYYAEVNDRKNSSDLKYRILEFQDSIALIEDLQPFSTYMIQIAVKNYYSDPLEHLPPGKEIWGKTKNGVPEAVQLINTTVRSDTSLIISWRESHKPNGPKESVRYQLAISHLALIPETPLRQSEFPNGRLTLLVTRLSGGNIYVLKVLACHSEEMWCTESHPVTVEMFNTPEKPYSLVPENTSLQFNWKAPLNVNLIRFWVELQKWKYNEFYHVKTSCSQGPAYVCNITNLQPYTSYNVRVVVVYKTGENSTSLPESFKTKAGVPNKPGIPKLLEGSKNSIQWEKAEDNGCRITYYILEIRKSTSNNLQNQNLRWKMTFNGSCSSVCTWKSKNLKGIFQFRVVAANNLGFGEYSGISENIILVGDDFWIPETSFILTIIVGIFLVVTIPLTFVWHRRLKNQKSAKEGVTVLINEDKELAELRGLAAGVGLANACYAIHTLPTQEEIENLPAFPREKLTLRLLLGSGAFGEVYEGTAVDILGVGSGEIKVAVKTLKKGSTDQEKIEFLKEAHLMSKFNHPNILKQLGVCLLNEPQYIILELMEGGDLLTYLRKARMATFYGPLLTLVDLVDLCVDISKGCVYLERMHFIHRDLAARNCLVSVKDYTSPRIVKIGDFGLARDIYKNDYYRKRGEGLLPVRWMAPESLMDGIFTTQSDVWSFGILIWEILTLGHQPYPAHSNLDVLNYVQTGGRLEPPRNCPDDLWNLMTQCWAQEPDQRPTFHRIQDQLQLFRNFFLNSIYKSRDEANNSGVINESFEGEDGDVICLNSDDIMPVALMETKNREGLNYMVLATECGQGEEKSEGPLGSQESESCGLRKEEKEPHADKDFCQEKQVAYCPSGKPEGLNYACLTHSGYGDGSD

Focal adhesion kinase 1 [4] = biological target: T3, Focal adhesion kinase 1 (Homo sapiens, UniProt Q05397); assay: Inhibition of FAK autophosphorylation at Y925 in human MDA-MB-231 cells at 5 uM incubated for 24 hrs by Western blot analysis; type: cell-based
Target sequence in this assay (Q05397 2-1052 limits assumed): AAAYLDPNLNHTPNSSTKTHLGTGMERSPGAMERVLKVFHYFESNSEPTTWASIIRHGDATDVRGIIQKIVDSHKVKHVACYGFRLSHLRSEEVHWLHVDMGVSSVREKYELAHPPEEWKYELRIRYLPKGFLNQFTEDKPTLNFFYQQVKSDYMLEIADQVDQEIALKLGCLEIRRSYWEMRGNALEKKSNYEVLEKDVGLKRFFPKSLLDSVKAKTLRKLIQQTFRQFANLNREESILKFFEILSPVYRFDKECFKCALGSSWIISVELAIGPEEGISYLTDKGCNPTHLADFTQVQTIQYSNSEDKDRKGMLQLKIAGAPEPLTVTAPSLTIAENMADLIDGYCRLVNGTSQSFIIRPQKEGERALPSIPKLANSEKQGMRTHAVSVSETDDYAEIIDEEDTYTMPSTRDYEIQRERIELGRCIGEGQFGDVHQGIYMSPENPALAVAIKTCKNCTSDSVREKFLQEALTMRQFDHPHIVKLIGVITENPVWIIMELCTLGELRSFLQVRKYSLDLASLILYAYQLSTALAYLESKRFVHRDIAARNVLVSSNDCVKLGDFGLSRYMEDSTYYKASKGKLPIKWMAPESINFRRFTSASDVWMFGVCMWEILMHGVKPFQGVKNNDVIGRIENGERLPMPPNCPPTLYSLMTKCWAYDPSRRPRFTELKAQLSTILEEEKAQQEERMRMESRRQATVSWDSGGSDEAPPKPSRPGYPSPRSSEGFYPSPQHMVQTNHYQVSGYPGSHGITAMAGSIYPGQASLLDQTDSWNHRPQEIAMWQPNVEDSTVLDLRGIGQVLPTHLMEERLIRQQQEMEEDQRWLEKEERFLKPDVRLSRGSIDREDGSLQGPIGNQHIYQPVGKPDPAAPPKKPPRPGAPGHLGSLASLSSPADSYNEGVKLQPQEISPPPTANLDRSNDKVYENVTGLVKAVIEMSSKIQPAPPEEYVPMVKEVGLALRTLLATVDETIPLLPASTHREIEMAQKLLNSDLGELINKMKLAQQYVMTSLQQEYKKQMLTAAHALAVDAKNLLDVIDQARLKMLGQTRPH

MDA-MB-231 [5] = assay: In vivo antitumor activity against human MDA-MB-231 cells xenografted in Balb/c mouse assessed as reduction in tumor weight at 40 to 70 mg/kg, po once daily measured for 16 days; type: functional, organism-based; conditions: dose 40-70 mg/kg, time 16.0 day
MV4-11 = assay: In vivo antitumor activity against human MV4-11 cells xenografted in mouse assessed as tumor growth inhibition at 20 mg/kg, po; type: functional; conditions: MV4-11, po
HCT-116 [6] = assay: Antiproliferative activity against human HCT-116 cells assessed as growth inhibition measured after 72 hrs by CellTiter-Glo assay; type: functional; conditions: Homo sapiens, HCT-116
[7] = Inhibition of FYK Y379 mutant phosphorylation in human MDA-MB-231 cells by in-cell western blot assay; type: cell-based
HCT-116 [8] = assay: Growth inhibition of anchorage-Independent human HCT-116 cells assessed as decrease in size incubated for 72 hrs by MTT assay; type: functional, cell-based; conditions: dose 1-10 µM
[9] = biological target: T4, Tyrosine-protein kinase JAK1 (Homo sapiens, UniProt P23458); assay: Inhibition of JAK1 (unknown origin)
T4 sequence (P23458 whole entry): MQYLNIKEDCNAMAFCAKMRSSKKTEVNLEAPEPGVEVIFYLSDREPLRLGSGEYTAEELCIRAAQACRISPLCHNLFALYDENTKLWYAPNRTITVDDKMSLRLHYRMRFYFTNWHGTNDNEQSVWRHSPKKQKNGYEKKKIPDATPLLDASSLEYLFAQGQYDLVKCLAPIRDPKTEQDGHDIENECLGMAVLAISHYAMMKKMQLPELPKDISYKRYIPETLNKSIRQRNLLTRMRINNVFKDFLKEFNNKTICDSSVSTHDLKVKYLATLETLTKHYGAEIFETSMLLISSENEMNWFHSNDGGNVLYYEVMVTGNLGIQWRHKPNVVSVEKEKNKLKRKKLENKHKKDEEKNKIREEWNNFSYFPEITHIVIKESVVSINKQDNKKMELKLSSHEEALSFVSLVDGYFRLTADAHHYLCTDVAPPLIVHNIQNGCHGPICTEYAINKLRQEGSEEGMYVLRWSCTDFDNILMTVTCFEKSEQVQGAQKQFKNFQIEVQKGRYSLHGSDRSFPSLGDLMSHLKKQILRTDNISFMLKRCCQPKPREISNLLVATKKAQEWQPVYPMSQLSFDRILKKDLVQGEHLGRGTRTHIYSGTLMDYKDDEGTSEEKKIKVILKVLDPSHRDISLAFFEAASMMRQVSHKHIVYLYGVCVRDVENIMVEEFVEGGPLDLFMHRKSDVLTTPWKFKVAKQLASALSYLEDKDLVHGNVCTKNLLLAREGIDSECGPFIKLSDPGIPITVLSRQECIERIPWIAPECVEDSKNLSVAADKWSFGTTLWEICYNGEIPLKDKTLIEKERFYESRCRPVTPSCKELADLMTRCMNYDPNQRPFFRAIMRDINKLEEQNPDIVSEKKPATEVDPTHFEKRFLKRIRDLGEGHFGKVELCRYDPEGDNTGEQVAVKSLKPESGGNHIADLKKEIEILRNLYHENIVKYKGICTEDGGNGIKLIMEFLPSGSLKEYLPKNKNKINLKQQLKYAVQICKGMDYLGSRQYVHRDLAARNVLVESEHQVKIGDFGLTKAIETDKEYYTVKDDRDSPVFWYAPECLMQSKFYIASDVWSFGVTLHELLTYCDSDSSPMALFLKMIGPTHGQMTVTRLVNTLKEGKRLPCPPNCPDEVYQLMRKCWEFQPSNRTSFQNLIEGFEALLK

Focal adhesion kinase 1 [10] = biological target: T3, Focal adhesion kinase 1; assay: Inhibition of recombinant FAK (unknown origin) by radiometric kinase assay
Focal adhesion kinase 1 [11] = biological target: T3, Focal adhesion kinase 1; assay: Inhibition of FAK in human MDA-MB-231 cells assessed as inhibition of Pyk2 phosphorylation at 0.5 to 5 uM incubated for 24 hrs by Western blot analysis; type: cell-based; conditions: dose 0.5-5 µM
Target sequence in this assay (Q05397 2-1052 limits assumed): as the sequence (Q05397 2-1052 limits assumed) above

[12] = biological target: Cyclin-dependent kinase 4 (Homo sapiens, UniProt P11802); assay: Inhibition of CDK4 (unknown origin)
[13] = biological target: Proto-oncogene tyrosine-protein kinase Src (Homo sapiens, UniProt P12931); assay: Inhibition of Src (unknown origin)
MDA-MB-231 [14] = assay: Antimetastatic activity against human MDA-MB-231 cells expressing firefly luciferase xenografted NSG orthotopic mouse model assessed as reduction in luminescence intensity at lung at 70 mg/kg, po once daily measured for 2 weeks; type: functional, organism-based
[15] = biological target: Non-receptor tyrosine-protein kinase TYK2 (Homo sapiens, UniProt P29597); assay: Inhibition of TYK2 (unknown origin) at 0.1 uM
[16] = biological target: T1, Tyrosine-protein kinase Lck; assay: Inhibition of Lck (unknown origin) at 0.1 uM
MDA-MB-231 [17] = assay: Growth inhibition of anchorage-Independent human MDA-MB-231 cells assessed as decrease in number of colonies at 10 uM incubated for 72 hrs by MTT assay relative to control; type: functional
[18] = tested on: T5, Receptor-type tyrosine-protein kinase FLT3 (Homo sapiens), P36888 [D835Y]; assay: Inhibition of FLT3-D835Y mutant (unknown origin) expressed in mouse Ba/F3 cells assessed as decrease in STAT5 phosphorylation at 10 nM by Western blot analysis; type: cell-based; conditions: BaF3
T5 sequence (whole entry): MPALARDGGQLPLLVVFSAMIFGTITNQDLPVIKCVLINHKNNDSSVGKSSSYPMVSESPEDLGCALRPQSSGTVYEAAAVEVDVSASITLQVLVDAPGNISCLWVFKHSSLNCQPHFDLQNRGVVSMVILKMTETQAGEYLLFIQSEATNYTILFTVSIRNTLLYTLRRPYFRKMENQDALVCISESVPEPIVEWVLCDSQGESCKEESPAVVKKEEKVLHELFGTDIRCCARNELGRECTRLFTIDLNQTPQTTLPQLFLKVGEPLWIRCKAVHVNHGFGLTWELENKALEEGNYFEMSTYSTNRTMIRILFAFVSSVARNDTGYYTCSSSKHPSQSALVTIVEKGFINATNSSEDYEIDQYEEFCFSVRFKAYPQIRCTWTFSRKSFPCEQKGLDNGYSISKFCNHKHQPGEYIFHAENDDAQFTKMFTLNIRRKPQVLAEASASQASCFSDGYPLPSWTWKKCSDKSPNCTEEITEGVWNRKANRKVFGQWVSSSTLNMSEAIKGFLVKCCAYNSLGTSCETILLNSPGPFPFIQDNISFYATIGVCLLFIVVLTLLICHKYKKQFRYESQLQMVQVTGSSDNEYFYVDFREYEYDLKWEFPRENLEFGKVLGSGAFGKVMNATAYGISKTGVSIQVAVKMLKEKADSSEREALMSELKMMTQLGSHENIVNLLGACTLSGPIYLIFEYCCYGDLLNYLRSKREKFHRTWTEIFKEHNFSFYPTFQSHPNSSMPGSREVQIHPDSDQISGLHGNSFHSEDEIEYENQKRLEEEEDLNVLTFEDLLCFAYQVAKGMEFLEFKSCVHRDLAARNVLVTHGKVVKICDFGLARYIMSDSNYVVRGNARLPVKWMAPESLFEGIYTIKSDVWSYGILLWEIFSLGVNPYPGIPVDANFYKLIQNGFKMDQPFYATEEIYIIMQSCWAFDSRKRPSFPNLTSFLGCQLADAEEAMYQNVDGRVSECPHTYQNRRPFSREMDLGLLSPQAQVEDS

MDA-MB-231 [19] = assay: In vivo antitumor activity against human MDA-MB-231 cells xenografted in Balb/c mouse assessed as reduction in tumor mass at 40 to 70 mg/kg, po once daily measured for 16 days; type: functional, organism-based; conditions: dose 40-70 mg/kg, time 16.0 day
[20] = biological target: T6, Proto-oncogene tyrosine-protein kinase receptor Ret (Homo sapiens, UniProt P07949); assay: Inhibition of RET (unknown origin)
MDA-MB-231 [21] = assay: Growth inhibition of anchorage-Independent human MDA-MB-231 cells assessed as decrease in number of colonies incubated for 72 hrs by MTT assay; type: functional, cell-based; conditions: dose 1-10 µM
[22] = biological target: Tyrosine-protein kinase Fyn (Homo sapiens, UniProt P06241); assay: Inhibition of Fyn (unknown origin) at 0.1 uM
[23] = biological target: T2, Proto-oncogene tyrosine-protein kinase ROS; assay: Inhibition of ROS (unknown origin)
[24] = biological target: Epithelial discoidin domain-containing receptor 1 (Homo sapiens, UniProt Q08345); assay: Inhibition of DDR1 (unknown origin) at 0.1 uM
[25] = Toxicity in NSG orthotopic mouse xenografted with human MDA-MB-231 cells assessed as change in body weight at 40 to 70 mg/kg, po once daily measured for 2 weeks; type: organism-based; conditions: in vivo, 336 h, dose 40-70 mg/kg
[26] = biological target: T6, Proto-oncogene tyrosine-protein kinase receptor Ret; assay: Inhibition of RET (unknown origin) at 0.1 uM
Focal adhesion kinase 1 [27] = biological target: T3, Focal adhesion kinase 1; assay: Inhibition of FAK autophosphorylation at Y576 in human MDA-MB-231 cells at 5 uM incubated for 24 hrs by Western blot analysis; type: cell-based
Target sequence in this assay (Q05397 2-1052 limits assumed): as the sequence (Q05397 2-1052 limits assumed) above

[28] = biological target: T4, Tyrosine-protein kinase JAK1; assay: Inhibition of JAK1 (unknown origin) at 0.1 uM
MDA-MB-231 [29] = assay: In vivo antitumor activity against human MDA-MB-231 cells xenografted in Balb/c mouse assessed as tumor volume at 40 mg/kg, po once daily measured for 16 days (reference value: 600 mm^3); type: functional; conditions: time 16 day

pIC50 [1]: 8.11
bioavailability [2]: 15.8%
inhibition [3]: 92.9%
inhibition (Focal adhesion kinase 1 [4]): Active
GI50 (HCT-116 [6]): 160 nM
pIC50 [7]: 6.59
pIC50 [9]: 8.74
pIC50 (Focal adhesion kinase 1 [10]): 8.15
inhibition (Focal adhesion kinase 1 [11]): Active
pIC50 [12]: 8.07
pIC50 [13]: 8.47
inhibition [15]: 95.9%
inhibition [16]: 93.9%
inhibition [18]: 100%
pIC50 [20]: 8.54
inhibition [22]: 92%
pIC50 [23]: 7.66
inhibition [24]: 97%
inhibition [26]: 95.3%
inhibition (Focal adhesion kinase 1 [27]): Active
inhibition [28]: 93.8%
SMILES: CCN1CCN(c2ccc(Nc3ncc4scc(-c5cccc(NS(C)(=O)=O)c5)c4n3)cc2)CC1
Activity (MDA-MB-231 [5]): Active
inhibition in vivo at 20 mg/kg (MV4-11): 65%
growth inhibition (GI) (HCT-116 [8]): Active
Activity (MDA-MB-231 [14]): Active
inhibition at 10 µM (MDA-MB-231 [17]): 75%
Activity (MDA-MB-231 [19]): Active
growth inhibition (GI) (MDA-MB-231 [21]): Dose-Dependent Effect
Activity [25]: Non-Toxic
Activity (MDA-MB-231 [29]): 400 mm3
